Experimental data as given in ChEMBL document CHEMBL1201862, “PubChem BioAssay data set” (2004).
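Grown in 96-well plates, cells were treated for 48 hours with each compound at five concentrations. Insufficient inhibition: endpoint recorded as highest concentration tested. At the GI50, growth is halved.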 Activity calls are given as the source filed them. Cut-off read from the data, not from the text of the source: active = GI50 up to about 1.1 µM and inactive = higher.

Columns and labels:
Assay in all cases: inhibition of tumour cell growth, NCI panel, 48 h
EKVX = tested on: EKVX
HOP-92 = tested on: HOP-92
SK-MEL-28 = tested on: SK-MEL-28
SF-539 = tested on: SF-539
M14 = tested on: M14
MOLT-4 = tested on: MOLT-4
HCC 2998 = tested on: HCC 2998
NCI-H522 = tested on: NCI-H522
SK-OV-3 = tested on: SK-OV-3
SF-295 = tested on: SF-295
RPMI-8226 = tested on: RPMI-8226
HT-29 = tested on: HT-29
HCT-116 = tested on: HCT-116
SNB-19 = tested on: SNB-19
SR = tested on: SR
UACC-62 = tested on: UACC-62

Measured: GI50

O=C1C=CC(=O)c2c1ccc1c3ccccc3n(-c3ccccn3)c21
inactive: EKVX 13.8 µM | HOP-92 15.6 µM | SK-MEL-28 > 100 µM | SF-539 32 µM | M14 27.5 µM | MOLT-4 4.8 µM | HCC 2998 > 100 µM | NCI-H522 4.15 µM | SK-OV-3 > 100 µM | SF-295 > 100 µM | RPMI-8226 25.6 µM | HT-29 28.4 µM | HCT-116 13.2 µM

COc1ccc2c(CCNC(=O)/C=C/c3ccccc3)c(C(C)=O)[nH]c2c1[N+](=O)[O-]
inactive: SK-MEL-28 14.5 µM | SF-539 9.86 µM | M14 7.33 µM | MOLT-4 5.69 µM | HCC 2998 20 µM | SNB-19 48.6 µM | SR 7.28 µM | NCI-H522 3.35 µM | UACC-62 10.2 µM | SF-295 3.87 µM | RPMI-8226 5.98 µM | HT-29 4.99 µM | HCT-116 13.7 µM

C=CC1=CSNN1
inactive: EKVX > 100 µM | HOP-92 > 100 µM | SK-MEL-28 > 100 µM | SF-539 > 100 µM | M14 > 100 µM | MOLT-4 > 100 µM | HCC 2998 > 100 µM | SNB-19 > 100 µM | NCI-H522 > 100 µM | UACC-62 > 100 µM | SK-OV-3 > 100 µM | SF-295 > 100 µM | RPMI-8226 > 100 µM | HT-29 > 100 µM

COC(=O)CCC(=O)CC(=O)C(=O)Nc1ccc(F)cc1
inactive: EKVX > 100 µM | HOP-92 > 100 µM | SK-MEL-28 > 100 µM | SF-539 > 100 µM | M14 > 100 µM | MOLT-4 > 100 µM | HCC 2998 > 100 µM | SNB-19 > 100 µM | NCI-H522 > 100 µM | UACC-62 > 100 µM | SK-OV-3 > 100 µM | RPMI-8226 > 100 µM | HT-29 > 100 µM | HCT-116 > 100 µM

O=S1(=O)NN=C(NCc2ccc(Cl)cc2)c2ccccc21
inactive: EKVX 46.9 µM | HOP-92 35.3 µM | SF-539 > 100 µM | M14 74 µM | MOLT-4 22.8 µM | HCC 2998 > 100 µM | SNB-19 > 100 µM | UACC-62 83.6 µM | SF-295 > 100 µM | RPMI-8226 30.6 µM | HT-29 > 100 µM | HCT-116 > 100 µM

CCOc1ccc2c(c1)[n+]([O-])c(-c1ccc(Br)cc1)c(N)[n+]2[O-]
inactive: EKVX 52.8 µM | SK-MEL-28 30.9 µM | SF-539 34.4 µM | M14 49 µM | MOLT-4 40.9 µM | HCC 2998 > 100 µM | SNB-19 57.3 µM | NCI-H522 16.6 µM | UACC-62 38.1 µM | SK-OV-3 > 100 µM | SF-295 > 100 µM | RPMI-8226 52.4 µM | HT-29 64.4 µM

C[C@]12Cc3conc3C(O)=C1CC[C@@H]1C2CC[C@@]2(C)C1CC[C@]2(C)O (some centres undefined)
inactive: EKVX 21.5 µM | HOP-92 32.4 µM | SK-MEL-28 19.9 µM | SF-539 21.8 µM | M14 16 µM | MOLT-4 15.2 µM | HCC 2998 21.1 µM | SNB-19 25.3 µM | UACC-62 10.4 µM | SK-OV-3 24.3 µM | SF-295 19.1 µM | RPMI-8226 2.87 µM | HT-29 20.6 µM | HCT-116 16.3 µM

CC1=C(c2ccccc2)C(c2ccccc2)=C(c2ccccc2)C2(c3ccccc3)C(=O)C(C)CN12 (centres undefined)
inactive: EKVX 41.4 µM | SK-MEL-28 > 100 µM | SF-539 31.5 µM | M14 51.6 µM | MOLT-4 16.6 µM | HCC 2998 > 100 µM | SNB-19 26.5 µM | SR 26.4 µM | NCI-H522 15.7 µM | UACC-62 10.3 µM | SK-OV-3 > 100 µM | SF-295 13.3 µM | RPMI-8226 29.2 µM | HT-29 42.3 µM | HCT-116 45.3 µM

O=C1C[C@@H]2[C@@H](CCC23CCCC3)N1
inactive: EKVX > 100 µM | SK-MEL-28 > 100 µM | SF-539 > 100 µM | M14 > 100 µM | MOLT-4 > 100 µM | HCC 2998 > 100 µM | SNB-19 > 100 µM | NCI-H522 > 100 µM | UACC-62 > 100 µM | SK-OV-3 > 100 µM | SF-295 > 100 µM | RPMI-8226 > 100 µM | HT-29 > 100 µM | HCT-116 > 100 µM

O=C1OC(=O)C2C1C1C(c3ccccc3)=C(c3ccccc3)C2(O)C2C(=O)OC(=O)C12 (centres undefined)
inactive: EKVX > 100 µM | HOP-92 65.6 µM | SK-MEL-28 98.4 µM | M14 > 100 µM | MOLT-4 32.5 µM | HCC 2998 > 100 µM | SNB-19 > 100 µM | SR 78.5 µM | NCI-H522 68.7 µM | UACC-62 > 100 µM | SK-OV-3 > 100 µM | SF-295 > 100 µM | RPMI-8226 38.6 µM | HT-29 46.9 µM | HCT-116 54.8 µM

O=C1c2ccccc2C(=O)c2c(O)c(O)cc(O)c21 [PURPURIN]
inactive: EKVX 50.9 µM | HOP-92 25.2 µM | SK-MEL-28 38.6 µM | SF-539 17.8 µM | M14 41.3 µM | MOLT-4 34 µM | HCC 2998 32.7 µM | SNB-19 34.1 µM | NCI-H522 33.6 µM | UACC-62 26.1 µM | SK-OV-3 31.8 µM | SF-295 51.6 µM | RPMI-8226 25.8 µM | HCT-116 24.5 µM

C[C@]12CCC3[C@@H](CC[C@@H]4c5nonc5CC[C@]34C)C1CCC2=O (some centres undefined)
inactive: EKVX 19.9 µM | HOP-92 20.8 µM | SK-MEL-28 24.7 µM | SF-539 20.4 µM | M14 18.3 µM | MOLT-4 23.2 µM | SNB-19 40.4 µM | NCI-H522 16.2 µM | UACC-62 17.3 µM | SK-OV-3 36.7 µM | SF-295 24.1 µM | RPMI-8226 17 µM | HT-29 16.5 µM | HCT-116 17 µM

COC(=O)C1=Cc2cn(S(=O)(=O)c3ccc(C)cc3)c3cccc(c23)C(C=C(C)C)N1C(C)=O (centres undefined)
inactive: EKVX > 100 µM | HOP-92 12.7 µM | SK-MEL-28 > 10 µM | SF-539 > 100 µM | M14 30.2 µM | MOLT-4 3.1 µM | HCC 2998 > 100 µM | SNB-19 49 µM | SR 12.4 µM | NCI-H522 5.83 µM | UACC-62 47.4 µM | SK-OV-3 > 100 µM | SF-295 6.11 µM | HT-29 27.9 µM | HCT-116 11.1 µM

C[C@]12CCC3[C@@H](CC[C@@H]4c5nonc5CC[C@]34C)C1C/C(=N/O)C2=O (some centres undefined)
inactive: EKVX 52.5 µM | HOP-92 46.5 µM | SK-MEL-28 27.1 µM | SF-539 71 µM | M14 63.5 µM | MOLT-4 59.7 µM | SNB-19 > 100 µM | NCI-H522 24.6 µM | UACC-62 63.7 µM | SK-OV-3 38.8 µM | SF-295 52.2 µM | RPMI-8226 9.48 µM | HT-29 > 100 µM | HCT-116 > 100 µM
